In paper PMC11874779 (Drug Design, Development and Therapy, 2025):

Tested on: Baf3-EGFR^19del/T790M/C797S
Experiment: Xenograft tumor model
Assay type: in vivo, BALB/c nude mice
Settings: 100 mg/kg ig daily, 9 days, from tumor weight

C=CC(=O)Nc1cc(Nc2nccc(-c3cn(C)c4ccccc34)n2)c(OC)cc1N(C)CCN(C)C [Osimertinib]
Tumor Growth Inhibition value (TGI): 13.5%
